Results reported in PubChem BioAssay AID844 (SRMLSC, 2007).
Active and inactive are the calls of the source. No rule for the calls is given here.

System: MRP1 cells, doxorubicin viability shift, 10 uM compound
Test: viability protection against doxorubicin, MRP-1 line – cell-based, doxorubicin EC50 shift, dose response (AID 844)
Conditions: for EC50: measured here: doxorubicin EC50 with compound

Compound | fold increase in Dox EC50 | EC50 [µM]
CN(CC(=O)NCCc1ccc(Cl)cc1)S(=O)(=O)c1ccc2c(c1)c(=O)n(C)c(=O)n2C | 0.54 (inactive) | 2.93
COc1ccc([N+](=O)[O-])cc1NC(=O)COC(=O)/C=C/c1ccco1 | 0.99 (inactive) | 5.32
CCOc1ccc(Cn2nnc(C(=O)NCCc3ccc(Cl)cc3)c2N)cc1 | 1.6 | 8.64
CCn1c(COc2ccc(Cl)cc2)nnc1SC1CCc2ccccc2C1=O (stereo not drawn) | 0.71 (inactive) | 3.81
CCn1c(C)c(C)c2cc(C(=O)Nc3cccc(Cl)c3)ccc21 | 0.43 (inactive) | 2.33
CCOc1ccc(NC(=O)CN2C(=O)COc3ccc(Cl)cc32)cc1 | 1.33 (inactive) | 7.19
CC(C)CCOc1ncnc2c1sc1nc3c(cc12)CSC(C)(C)C3 | 0.51 (inactive) | 2.76
C/C(=N/NC(=O)CSc1ccccn1)c1ccc([N+](=O)[O-])cc1 | 0.77 (inactive) | 4.18
CNC(=O)CSc1nnc(COc2ccc(Cl)cc2)n1CCOC | 1.29 (inactive) | 6.95
O=c1oc(-c2cc3ccccc3o2)nc2sc3c(c12)CCCC3 | 1.17 (inactive) | 6.32
Cc1cc2nc(-c3cccc(NC(=O)c4ccc(Br)o4)c3C)oc2cc1C | 1.03 (inactive) | 5.56
Cc1nn(Cc2ccccc2)c(C)c1NC(=O)c1noc2c1CCc1ccccc1-2 | 0.95 (inactive) | 5.11
Cc1nn(Cc2ccc(Cl)cc2Cl)c(C)c1NC(=O)c1ccc(COc2cc(Cl)ccc2Cl)o1 | 0.82 (inactive) | 4.4
CCC(Sc1nc2ccccc2o1)C(=O)Nc1nnc(C)s1 (stereo not drawn) | 1.34 (inactive) | 7.22
Cc1cccc(Cc2cnc(NC(=O)CN3C(=O)/C(=C/c4ccccc4)SC3=S)s2)c1 | 1.53 | 8.25
COc1ccc(/C=C/C(=O)NCc2cnn(C)c2C)cc1COc1ccc(Br)cc1 | 0.68 (inactive) | 3.7
O=C(Nc1cccnc1)C1CC(c2ccc(Cl)c(Cl)c2)=NO1 (stereo not drawn) | 1.32 (inactive) | 7.13
COc1ccc(-n2c(SCC(=O)Nc3ccccc3)nc3c(c2=O)SCC3)cc1 | 0.22 (inactive) | 1.18
CN=C1S/C(=C\c2cc(C)n(-c3ccccc3F)c2C)C(=O)N1C | 0.65 (inactive) | 3.49
Cc1ccc(OCCN2CCN(C(=O)CCC(=O)Nc3nnc(C)s3)CC2)cc1 | 1.53 | 8.28
COC1(OC)C(=N/O)/C(=N\O)CCC1O (stereo not drawn) | 0.77 (inactive) | 4.16
Cc1ccc(S(=O)(=O)N2CCC(C(=O)N[C@@H](C)C(=O)NC3CCCCC3)CC2)cc1 | 0.88 (inactive) | 4.73
O=C(NNC1=C(C(=O)C(F)(F)F)CCC1)c1cccc(Cl)c1 | 1.03 (inactive) | 5.54
Cc1cccc(NC(=O)CC2SC(=O)N(c3ccccc3)C2=O)c1 (stereo not drawn) | 0.95 (inactive) | 5.15
O=C(NCc1ccccc1)C(c1ccc(O)cc1)N(C(=O)Cn1nnc(-c2cccs2)n1)c1ccc2c(c1)OCCO2 (stereo not drawn) | 0.86 (inactive) | 4.66
CC(C)CNC(=O)c1cccc(NC(=O)Cc2ccc(Br)cc2)c1 | 0.92 (inactive) | 4.98
Cc1nc(=O)c(-c2ccccc2)c(C)n1-c1cccc(C(=O)O)c1 | 1.26 (inactive) | 6.82
COc1cccc(/C=N/NC(=O)CNC(=O)c2ccc3c(c2)OCCO3)c1O | 0.5 (inactive) | 2.71
Cc1cc(C)nc(NN2C(=O)/C(=C/c3ccccc3)SC2=S)n1 | 1.56 | 8.42
